Source: ChEMBL document CHEMBL4507276 (2021)

Assays:
[1] = biological target: Beta-1 adrenergic receptor (Homo sapiens) (UniProt P08588); settings: Compound concentration 10.0 uM
[2] = biological target: Macrophage colony-stimulating factor 1 receptor (Homo sapiens) (UniProt P07333); settings: Compound concentration 1000.0 nM
[3] = biological target: Serine/threonine-protein kinase MARK1 (Homo sapiens) (UniProt Q9P0L2); experiment: MARK1 Invitrogen selectivity data (BI); settings: Compound concentration 3.0 uM
[4] = biological target: Serine/threonine-protein kinase MRCK beta (Homo sapiens) (UniProt Q9Y5S2); experiment: CDC42 BPB Invitrogen selectivity data (BI); settings: Compound concentration 3.0 uM
[5] = biological target: Mitogen-activated protein kinase 14 (Homo sapiens) (UniProt Q16539); experiment: P38ALPHA_CE Cerep selectivity data (BI); settings: Compound concentration 20.0 uM
[6] = biological target: Urotensin-2 receptor (Homo sapiens) (UniProt Q9UKP6); experiment: UT1/H AG Cerep selectivity data (BI); settings: filed as agonist, Compound concentration 20.0 uM
[7] = biological target: Tyrosine-protein kinase Lyn (Homo sapiens) (UniProt P07948); experiment: LYN B Invitrogen selectivity data (BI); settings: Compound concentration 3.0 uM
[8] = biological target: Interleukin-1 receptor-associated kinase 1 (Homo sapiens) (UniProt P51617); experiment: IRAK1 Invitrogen selectivity data (BI); settings: Compound concentration 3.0 uM
Sequence of Interleukin-1 receptor-associated kinase 1 (Homo sapiens) (P51617 whole entry, looked up): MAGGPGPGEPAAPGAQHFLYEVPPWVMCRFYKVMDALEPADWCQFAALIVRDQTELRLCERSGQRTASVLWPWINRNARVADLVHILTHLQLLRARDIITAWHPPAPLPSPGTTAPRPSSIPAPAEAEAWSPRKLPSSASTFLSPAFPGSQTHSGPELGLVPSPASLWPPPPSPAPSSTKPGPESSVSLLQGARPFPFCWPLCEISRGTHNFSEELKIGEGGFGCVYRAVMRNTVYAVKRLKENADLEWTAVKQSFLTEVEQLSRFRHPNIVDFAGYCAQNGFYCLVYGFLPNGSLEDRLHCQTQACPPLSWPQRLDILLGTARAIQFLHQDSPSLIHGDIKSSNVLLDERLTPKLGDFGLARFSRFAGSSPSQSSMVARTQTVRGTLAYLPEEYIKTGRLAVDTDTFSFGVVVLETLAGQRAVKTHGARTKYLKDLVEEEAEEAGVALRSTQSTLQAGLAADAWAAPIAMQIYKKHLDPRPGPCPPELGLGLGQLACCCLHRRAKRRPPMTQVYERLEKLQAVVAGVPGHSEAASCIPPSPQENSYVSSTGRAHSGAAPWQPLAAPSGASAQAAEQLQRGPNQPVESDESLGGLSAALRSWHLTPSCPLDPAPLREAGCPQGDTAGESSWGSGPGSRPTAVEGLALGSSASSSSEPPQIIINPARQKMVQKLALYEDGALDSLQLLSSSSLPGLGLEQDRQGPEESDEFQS

[9] = biological target: Prostaglandin F2-alpha receptor (Homo sapiens) (UniProt P43088); experiment: FPH_AGON Cerep selectivity data (BI); settings: filed as agonist, Compound concentration 20.0 uM
[10] = biological target: T1, Muscarinic acetylcholine receptor M2 (Homo sapiens) (UniProt P08172); experiment: M2/HU Eurofins-Panlabs selectivity data (BI); settings: Compound concentration 10.0 uM
T1 sequence (whole entry): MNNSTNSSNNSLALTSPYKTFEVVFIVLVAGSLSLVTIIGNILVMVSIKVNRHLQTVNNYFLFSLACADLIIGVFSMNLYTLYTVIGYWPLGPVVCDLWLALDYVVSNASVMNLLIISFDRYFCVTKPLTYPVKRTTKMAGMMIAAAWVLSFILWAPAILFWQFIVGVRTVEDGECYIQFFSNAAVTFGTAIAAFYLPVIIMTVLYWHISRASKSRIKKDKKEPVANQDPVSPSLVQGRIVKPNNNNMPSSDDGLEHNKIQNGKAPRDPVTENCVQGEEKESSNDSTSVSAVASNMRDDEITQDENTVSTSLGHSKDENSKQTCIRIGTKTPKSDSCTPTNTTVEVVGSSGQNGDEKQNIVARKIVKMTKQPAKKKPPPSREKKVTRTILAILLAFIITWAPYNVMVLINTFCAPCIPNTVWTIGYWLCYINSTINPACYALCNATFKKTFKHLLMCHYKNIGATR

[11] = biological target: ALK tyrosine kinase receptor (Homo sapiens) (UniProt Q9UM73); experiment: ALK Invitrogen selectivity data (BI); settings: Compound concentration 3.0 uM
[12] = biological target: Histamine H2 receptor (Homo sapiens) (UniProt P25021); experiment: H2/H Eurofins-Panlabs selectivity data (BI); settings: Compound concentration 10.0 uM
Sequence of Histamine H2 receptor (Homo sapiens) (P25021 whole entry): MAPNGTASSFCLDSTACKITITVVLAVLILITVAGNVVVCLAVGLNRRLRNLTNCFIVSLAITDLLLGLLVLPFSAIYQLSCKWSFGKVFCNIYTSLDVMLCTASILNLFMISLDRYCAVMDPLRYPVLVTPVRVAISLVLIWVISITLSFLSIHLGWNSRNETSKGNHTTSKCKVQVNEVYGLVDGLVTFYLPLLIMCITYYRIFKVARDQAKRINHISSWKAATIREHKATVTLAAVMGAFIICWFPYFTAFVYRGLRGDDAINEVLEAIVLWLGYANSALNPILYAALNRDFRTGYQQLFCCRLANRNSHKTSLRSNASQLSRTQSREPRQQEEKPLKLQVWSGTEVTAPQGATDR

[13] = biological target: Dual specificity protein kinase CLK4 (Homo sapiens) (UniProt Q9HAZ1); experiment: CLK4 Invitrogen selectivity data (BI); settings: Compound concentration 3.0 uM
[14] = biological target: Small conductance calcium-activated potassium channel protein 1 (Rattus norvegicus) (UniProt P70606); experiment: K+/CA+/R Cerep selectivity data (BI); settings: Compound concentration 20.0 uM
[15] = biological target: Activin receptor type-2B (Homo sapiens) (UniProt Q13705); experiment: ACVR2B Invitrogen selectivity data (BI); settings: Compound concentration 3.0 uM
Sequence of Activin receptor type-2B (Homo sapiens) (Q13705 whole entry): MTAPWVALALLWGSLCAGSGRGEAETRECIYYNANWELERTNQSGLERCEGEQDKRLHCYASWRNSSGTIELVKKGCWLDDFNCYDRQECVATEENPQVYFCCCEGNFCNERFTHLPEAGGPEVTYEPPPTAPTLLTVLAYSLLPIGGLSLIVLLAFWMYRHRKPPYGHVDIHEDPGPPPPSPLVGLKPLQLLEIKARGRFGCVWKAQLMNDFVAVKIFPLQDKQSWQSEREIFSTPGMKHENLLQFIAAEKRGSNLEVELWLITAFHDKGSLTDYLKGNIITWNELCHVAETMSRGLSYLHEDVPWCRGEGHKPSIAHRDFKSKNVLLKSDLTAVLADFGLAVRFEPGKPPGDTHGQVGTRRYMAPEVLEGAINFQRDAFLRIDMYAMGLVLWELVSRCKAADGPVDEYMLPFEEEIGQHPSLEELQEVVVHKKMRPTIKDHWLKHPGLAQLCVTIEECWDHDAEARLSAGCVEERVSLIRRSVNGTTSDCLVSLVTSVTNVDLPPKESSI

[16] = biological target: Voltage-dependent N-type calcium channel subunit alpha-1B (Rattus norvegicus) (UniProt Q02294); experiment: CA+/N/R Cerep selectivity data (BI); settings: Compound concentration 20.0 uM
Sequence of Voltage-dependent N-type calcium channel subunit alpha-1B (Rattus norvegicus) (Q02294 whole entry, looked up): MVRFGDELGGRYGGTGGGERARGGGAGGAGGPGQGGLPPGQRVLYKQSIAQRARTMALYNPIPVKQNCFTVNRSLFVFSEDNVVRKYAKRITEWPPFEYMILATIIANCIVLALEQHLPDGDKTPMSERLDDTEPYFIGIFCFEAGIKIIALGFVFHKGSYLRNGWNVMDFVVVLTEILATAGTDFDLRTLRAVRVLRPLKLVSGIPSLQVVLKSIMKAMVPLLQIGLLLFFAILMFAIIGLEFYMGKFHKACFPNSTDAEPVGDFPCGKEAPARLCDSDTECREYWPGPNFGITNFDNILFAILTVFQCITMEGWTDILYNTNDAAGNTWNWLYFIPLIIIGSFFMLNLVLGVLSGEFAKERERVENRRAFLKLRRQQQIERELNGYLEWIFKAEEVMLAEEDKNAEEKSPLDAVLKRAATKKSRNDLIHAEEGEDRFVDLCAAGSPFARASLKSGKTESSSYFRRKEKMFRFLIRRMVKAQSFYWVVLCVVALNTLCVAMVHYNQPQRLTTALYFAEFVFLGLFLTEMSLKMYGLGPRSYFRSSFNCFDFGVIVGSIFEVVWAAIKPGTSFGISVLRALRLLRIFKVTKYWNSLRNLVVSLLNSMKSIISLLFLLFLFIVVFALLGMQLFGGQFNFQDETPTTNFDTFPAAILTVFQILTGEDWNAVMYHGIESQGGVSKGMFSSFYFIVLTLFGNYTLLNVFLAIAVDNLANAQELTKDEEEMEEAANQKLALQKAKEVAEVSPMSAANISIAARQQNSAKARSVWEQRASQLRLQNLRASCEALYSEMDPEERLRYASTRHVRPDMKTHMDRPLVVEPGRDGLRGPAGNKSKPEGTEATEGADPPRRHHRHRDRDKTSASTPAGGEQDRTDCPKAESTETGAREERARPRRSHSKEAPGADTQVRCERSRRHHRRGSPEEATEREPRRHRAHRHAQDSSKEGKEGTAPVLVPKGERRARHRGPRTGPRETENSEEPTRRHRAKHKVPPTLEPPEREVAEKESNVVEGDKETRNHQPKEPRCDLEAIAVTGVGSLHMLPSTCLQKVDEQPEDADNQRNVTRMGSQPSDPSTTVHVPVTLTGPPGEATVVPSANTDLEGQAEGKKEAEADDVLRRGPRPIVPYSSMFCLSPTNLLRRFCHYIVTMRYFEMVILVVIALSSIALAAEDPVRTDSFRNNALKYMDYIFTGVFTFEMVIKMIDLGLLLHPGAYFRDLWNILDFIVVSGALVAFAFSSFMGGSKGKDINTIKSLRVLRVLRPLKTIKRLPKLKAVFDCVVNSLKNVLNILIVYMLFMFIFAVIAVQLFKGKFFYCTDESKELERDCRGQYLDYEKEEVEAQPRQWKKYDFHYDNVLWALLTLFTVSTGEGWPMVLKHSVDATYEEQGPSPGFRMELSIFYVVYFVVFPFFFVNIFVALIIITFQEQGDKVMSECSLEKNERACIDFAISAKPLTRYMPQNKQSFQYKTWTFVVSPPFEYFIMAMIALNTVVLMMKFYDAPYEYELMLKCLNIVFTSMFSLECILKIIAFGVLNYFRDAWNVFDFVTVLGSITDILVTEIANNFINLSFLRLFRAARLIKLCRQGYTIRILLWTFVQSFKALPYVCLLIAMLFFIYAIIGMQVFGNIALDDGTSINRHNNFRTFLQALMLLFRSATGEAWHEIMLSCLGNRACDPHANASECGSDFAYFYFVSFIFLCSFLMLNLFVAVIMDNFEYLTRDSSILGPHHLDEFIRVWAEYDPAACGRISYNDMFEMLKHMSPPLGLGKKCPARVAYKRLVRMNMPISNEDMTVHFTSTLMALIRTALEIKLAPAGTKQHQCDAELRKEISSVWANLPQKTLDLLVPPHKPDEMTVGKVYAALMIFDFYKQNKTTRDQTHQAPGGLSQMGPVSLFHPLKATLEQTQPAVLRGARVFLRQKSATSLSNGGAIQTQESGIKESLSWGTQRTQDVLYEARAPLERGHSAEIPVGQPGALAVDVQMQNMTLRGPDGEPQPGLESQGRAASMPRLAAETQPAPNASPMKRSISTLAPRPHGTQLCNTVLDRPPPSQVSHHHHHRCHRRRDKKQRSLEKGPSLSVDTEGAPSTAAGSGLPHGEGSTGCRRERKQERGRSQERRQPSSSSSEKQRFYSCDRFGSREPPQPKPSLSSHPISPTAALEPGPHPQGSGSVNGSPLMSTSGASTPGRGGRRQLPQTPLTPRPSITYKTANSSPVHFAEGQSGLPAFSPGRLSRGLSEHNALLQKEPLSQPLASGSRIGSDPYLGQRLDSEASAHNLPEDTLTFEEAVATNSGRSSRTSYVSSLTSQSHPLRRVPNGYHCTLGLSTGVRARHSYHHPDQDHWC

[17] = biological target: Protein kinase C theta type (Homo sapiens) (UniProt Q04759); experiment: PRKCQ Invitrogen selectivity data (BI); settings: Compound concentration 3.0 uM
[18] = biological target: MAP kinase-activated protein kinase 2 (Homo sapiens) (UniProt P49137); experiment: MAPKAPK2 Invitrogen selectivity data (BI); settings: Compound concentration 3.0 uM
[19] = biological target: Calcium/calmodulin-dependent protein kinase type II subunit alpha (Homo sapiens) (UniProt Q9UQM7); experiment: CAMK2ALPHA(H) Cerep selectivity data (BI); settings: Compound concentration 20.0 uM
[20] = biological target: Mitogen-activated protein kinase kinase kinase 10 (Homo sapiens) (UniProt Q02779); experiment: MAP3K10 Invitrogen selectivity data (BI); settings: Compound concentration 3.0 uM
[21] = biological target: Protein-tyrosine kinase 6 (Homo sapiens) (UniProt Q13882); experiment: PTK6 Invitrogen selectivity data (BI); settings: Compound concentration 3.0 uM
Sequence of Protein-tyrosine kinase 6 (Homo sapiens) (Q13882 whole entry, looked up): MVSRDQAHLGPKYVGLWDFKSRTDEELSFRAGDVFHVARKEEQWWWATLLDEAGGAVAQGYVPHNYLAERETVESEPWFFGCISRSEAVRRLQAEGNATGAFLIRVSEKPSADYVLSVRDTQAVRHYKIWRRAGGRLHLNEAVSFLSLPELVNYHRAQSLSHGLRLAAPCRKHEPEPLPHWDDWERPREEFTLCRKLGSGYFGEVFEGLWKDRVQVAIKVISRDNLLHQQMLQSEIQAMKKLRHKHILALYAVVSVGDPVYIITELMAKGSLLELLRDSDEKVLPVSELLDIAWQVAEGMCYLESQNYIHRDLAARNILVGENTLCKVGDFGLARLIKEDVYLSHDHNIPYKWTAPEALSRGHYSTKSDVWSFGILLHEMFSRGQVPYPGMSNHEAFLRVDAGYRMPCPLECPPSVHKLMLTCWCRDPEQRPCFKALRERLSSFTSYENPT

[22] = biological target: Focal adhesion kinase 1 (Homo sapiens) (UniProt Q05397); experiment: PTK2 Invitrogen selectivity data (BI); settings: Compound concentration 3.0 uM
[23] = biological target: Ribosomal protein S6 kinase alpha-3 (Homo sapiens) (UniProt P51812); experiment: RPS6KA3 Invitrogen selectivity data (BI); settings: Compound concentration 3.0 uM
[24] = biological target: Dual specificity protein kinase CLK2 (Homo sapiens) (UniProt P49760); experiment: CLK2 Invitrogen selectivity data (BI); settings: Compound concentration 3.0 uM
[25] = biological target: B2 bradykinin receptor (Homo sapiens) (UniProt P30411); experiment: B2/H Eurofins-Panlabs selectivity data (BI); settings: filed as antagonist, Compound concentration 10.0 uM
Sequence of B2 bradykinin receptor (Homo sapiens) (P30411 whole entry): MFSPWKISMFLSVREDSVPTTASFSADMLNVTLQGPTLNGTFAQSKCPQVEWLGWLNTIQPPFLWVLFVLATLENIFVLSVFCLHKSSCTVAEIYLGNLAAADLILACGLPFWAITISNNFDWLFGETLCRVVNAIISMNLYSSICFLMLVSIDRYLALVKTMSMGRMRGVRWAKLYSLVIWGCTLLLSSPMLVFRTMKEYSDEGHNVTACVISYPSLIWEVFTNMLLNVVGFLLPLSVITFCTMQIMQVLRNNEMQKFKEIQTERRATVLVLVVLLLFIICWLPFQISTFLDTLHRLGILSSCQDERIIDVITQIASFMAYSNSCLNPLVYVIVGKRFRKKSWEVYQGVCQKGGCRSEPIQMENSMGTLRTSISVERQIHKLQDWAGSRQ

[26] = biological target: T2, Serine/threonine-protein kinase NLK (Homo sapiens) (UniProt Q9UBE8); experiment: NLK Invitrogen selectivity data (BI); settings: Compound concentration 3.0 uM
T2 sequence (whole entry): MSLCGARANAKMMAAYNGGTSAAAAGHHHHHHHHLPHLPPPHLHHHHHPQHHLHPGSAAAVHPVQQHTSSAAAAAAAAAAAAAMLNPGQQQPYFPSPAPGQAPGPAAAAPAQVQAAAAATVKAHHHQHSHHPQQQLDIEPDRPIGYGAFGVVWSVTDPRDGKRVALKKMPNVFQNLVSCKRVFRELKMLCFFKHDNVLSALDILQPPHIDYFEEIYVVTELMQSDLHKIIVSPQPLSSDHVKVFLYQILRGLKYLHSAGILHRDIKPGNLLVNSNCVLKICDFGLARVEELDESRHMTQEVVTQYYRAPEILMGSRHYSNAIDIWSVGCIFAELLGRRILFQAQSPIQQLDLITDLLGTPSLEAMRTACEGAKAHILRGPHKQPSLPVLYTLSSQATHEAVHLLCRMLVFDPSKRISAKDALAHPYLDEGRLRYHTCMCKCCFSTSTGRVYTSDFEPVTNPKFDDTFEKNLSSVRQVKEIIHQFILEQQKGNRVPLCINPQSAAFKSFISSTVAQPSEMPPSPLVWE

[27] = biological target: High affinity nerve growth factor receptor (Homo sapiens) (UniProt P04629); experiment: NTRK1 Invitrogen selectivity data (BI); settings: Compound concentration 3.0 uM
[28] = biological target: DNA-dependent protein kinase catalytic subunit (Homo sapiens) (UniProt P78527); experiment: DNA-PK Invitrogen selectivity data (BI); settings: Compound concentration 3.0 uM

CN(C)C(=O)Cn1cc(-c2nc(C3(c4ccc(-c5cnc(N)nc5)cc4)CC3)no2)cn1 [BI 0153]
inactive: inhibition [1] 7.58% | residual activity [2] 100%

CN(C)C(=O)Cn1cc(-c2nc([C@@](C)(c3ccc(-c4cnc(N)nc4)cc3)C3CC3)no2)cn1 [BI 665915]
inactive: residual activity [3] 98% | residual activity [4] 94% | residual activity [5] 113% | residual activity [6] 99% | residual activity [7] 89% | residual activity [8] 100% | residual activity [9] 84% | residual activity [10] 98% | residual activity [11] 97% | residual activity [12] 98% | residual activity [13] 95% | residual activity [14] 88% | residual activity [15] 97% | residual activity [16] 96% | residual activity [17] 93.5% | residual activity [18] 96.5% | residual activity [19] 111% | residual activity [20] 88% | residual activity [21] 99.5% | residual activity [22] 87.5% | residual activity [23] 105% | residual activity [24] 95.5% | residual activity [25] 123% | residual activity [26] 93% | residual activity [27] 95.5% | residual activity [28] 91%
